The results in this text go back to patent US10596168B2, “Antagonists of the thyroid-stimulating hormone receptor (TSHR)” (Forschungsverbund Berlin e.V., priority 2016, dated 2020).

Each structure is given as a SMILES string.

T1 sequence (P16473 21-764): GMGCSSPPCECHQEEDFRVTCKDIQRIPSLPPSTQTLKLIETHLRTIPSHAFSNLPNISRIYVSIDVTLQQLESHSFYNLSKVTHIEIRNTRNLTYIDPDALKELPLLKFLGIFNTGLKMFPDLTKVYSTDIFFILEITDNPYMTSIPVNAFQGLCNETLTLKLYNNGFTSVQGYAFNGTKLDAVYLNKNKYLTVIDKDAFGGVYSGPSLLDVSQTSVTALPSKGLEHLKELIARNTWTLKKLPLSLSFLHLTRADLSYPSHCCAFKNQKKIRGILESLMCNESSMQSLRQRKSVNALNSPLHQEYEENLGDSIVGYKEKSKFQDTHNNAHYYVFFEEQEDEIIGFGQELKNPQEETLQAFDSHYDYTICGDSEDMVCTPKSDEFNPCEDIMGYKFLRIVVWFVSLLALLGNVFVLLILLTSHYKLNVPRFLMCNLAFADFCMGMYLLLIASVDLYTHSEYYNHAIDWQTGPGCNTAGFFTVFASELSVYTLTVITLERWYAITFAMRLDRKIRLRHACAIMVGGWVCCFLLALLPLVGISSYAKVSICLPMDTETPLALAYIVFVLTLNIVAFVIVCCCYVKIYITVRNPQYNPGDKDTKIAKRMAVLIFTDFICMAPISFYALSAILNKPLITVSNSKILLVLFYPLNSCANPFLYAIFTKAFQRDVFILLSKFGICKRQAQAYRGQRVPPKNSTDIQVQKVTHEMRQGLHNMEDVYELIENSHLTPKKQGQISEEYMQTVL

The experiment has as its target T1, TSHR (Homo sapiens, UniProt P16473).
T1 construct: expressed in transfected cells
Put plainly: cAMP accumulation radioimmunoassay (RIA), inhibition of TSH-induced cAMP production in HEK-293 cells stably expressing TSHR. It is filed as cell-based. Also noted: antagonistic activity (% inhibition): concentration or dose not given beside the values. The following applies: inhibiting cAMP stimulation by TSH, radioimmunoassay. Here is the method:
HEK-293 cells stably expressing TSHR, FSHR, LHGCR or CRF1R were cultured for 48 h and stimulated for 1 h at 37° C. with stimulation buffer (DMEM supplemented with 10 mM HEPES, 0.5% BSA, 0.25 mM 3-isobutyl-1-methylxanthine) containing the ligands as indicated. After stimulation medium was aspirated and reactions were stopped by lysis of the cells with 0.1% trifluoroacetic acid, 0.005% Triton X-100 for 30 min at 4° C. Supernatants were collected and heated at 95° C. for 10 min, dried in a rotation vacuum concentrator (Alpha-RCV, Christ) and finally stored at −20° C. until use. After reconstitution and acetylation of the samples (Jäschke et al. 2006), the cAMP content was determined using cAMP-^125I-tyrosyl methyl ester (10,000 cpm, IBL) and polyclonal rabbit anti cAMP antibodies. The radioactivity of the precipitate was determined in a γ-counter.
For the Secondary Screening cAMP accumulation was measured by radioimmunoassay (RIA) in HEK-293-TSHR cells as described before.
For the secondary screening we used a very sensitive in vitro technique, the radioimmunoassay. This assay was established and performed in HEK-293 cell line stably expressing TSHR.
Therefore RIA was used to measure the cAMP accumulation upon stimulation with TSH (EC80 value) and confirmed the desired effect for S4 and S9 with a clear decrease of cAMP production.
Background: Cyclic AMP is a second messenger, typically raised through Gs and lowered through Gi signalling.
In the case of `Nc1ccc(N2C(=O)[C@@H]3[C@H]4C[C@H]([C@@H]5Sc6[nH]c(=O)sc6[C@@H](c6ccccc6)[C@H]45)[C@@H]3C2=O)cc1` (racemic) [Compound S79, (4aR,5R,5aS,8aS,9S,9aR,10S)-7-(4-aminophenyl)-10-phenyl-3,4a,5,5a,8a,9,9a,10-octahydro-5,9-methanothiazolo[5′,4′:5,6]thiopyrano[2,3-f]isoindole-2,6,8(7H)-trione Compound with (4aS,5S,5aR,8aR,9R,9aS,10R)-7-(4-aminophenyl)-10-phenyl-3,4a,5,5a,8a,9,9a,10-octahydro-5,9-methanothiazolo[5′,4′:5,6]thiopyrano[2,3-t]isoindole-2,6,8(7H)-trione (1:1)], the “antagonistic activity (% inhibition)” value is reported as 29%.
With `CC(=O)c1ccc(N2C(=O)[C@@H]3[C@H]4C[C@H]([C@@H]5Sc6[nH]c(=O)sc6[C@@H](c6ccccc6)[C@H]45)[C@@H]3C2=O)cc1` (racemic) [Compound S80, (4aR,5R,5aS,8aS,9S,9aR,10S)-7-(4-acetylphenyl)-10-phenyl-3,4a,5,5a,8a,9,9a,10-octahydro-5,9-methanothiazolo[5′,4′:5,6]thiopyrano[2,3-f]isoindole-2,6,8(7H)-trione Compound with (4aS,5S,5aR,8aR,9R,9aS,10R)-7-(4-acetylphenyl)-10-phenyl-3,4a,5,5a,8a,9,9a,10-octahydro-5,9-methanothiazolo[5′,4′:5,6]thiopyrano[2,3-f]isoindole-2,6,8(7H)-trione (1:1)] the figure was 25%; with `COC(=O)c1ccc(N2C(=O)[C@@H]3[C@H]4C[C@H]([C@@H]5Sc6[nH]c(=O)sc6[C@@H](c6ccccc6)[C@H]45)[C@@H]3C2=O)cc1` (racemic) [Compound S87, methyl 4-((4aR,5R,5aS,8aS,9S,9aR,10S)-2,6,8-trioxo-10-phenyl-3,4a,5,5a,6,8,8a,9,9a,10-decahydro-5,9-methanothiazolo[5′,4′:5,6]thiopyrano[2,3-f]isoindol-7(2H)-yl)benzoate compound with methyl 4-((4aS,5S,5aR,8aR,9R,9aS,10R)-2,6,8-trioxo-10-phenyl-3,4a,5,5a,6,8,8a,9,9a,10-decahydro-5,9-methanothiazolo[5′,4′:5,6]thiopyrano[2,3-f]isoindol-7(2H)-yl)benzoate (1:1)], 29%.
In the case of `COc1ccc(N2C(=O)[C@@H]3[C@H]4C[C@H]([C@@H]5Sc6[nH]c(=O)sc6[C@@H](c6ccccc6)[C@H]45)[C@@H]3C2=O)cc1` (racemic) [Compound S89, (4aR,5R,5aS,8aS,9S,9aR,10S)-7-(4-methoxyphenyl)-10-phenyl-3,4a,5,5a,8a,9,9a,10-octahydro-5,9-methanothiazolo[5′,4′:5,6]thiopyrano[2,3-t]isoindole-2,6,8(7H)-trione compound with (4aS,5S,5aR,8aR,9R,9aS,10R)-7-(4-methoxyphenyl)-10-phenyl-3,4a,5,5a,8a,9,9a,10-octahydro-5,9-methanothiazolo[5′,4′:5,6]thiopyrano[2,3-t]isoindole-2,6,8(7H)-trione (1:1)] it was 22%.
On to `Cc1ccc(N2C(=O)[C@@H]3[C@H]4C[C@H]([C@@H]5Sc6[nH]c(=O)sc6[C@@H](c6ccccc6)[C@H]45)[C@@H]3C2=O)cc1` (racemic) [Compound S90, (4aR,5R,5aS,8aS,9S,9aR,10S)-10-phenyl-7-(p-tolyl)-3,4a,5,5a,8a,9,9a,10-octahydro-5,9-methanothiazolo[5′,4′:5,6]thiopyrano[2,3-f]isoindole-2,6,8(7H)-trione Compound with (4aS,5S,5aR,8aR,9R,9aS,10R)-10-phenyl-7-(p-tolyl)-3,4a,5,5a,8a,9,9a,10-octahydro-5,9-methanothiazolo[5′,4′:5,6]thiopyrano[2,3-f]isoindole-2,6,8(7H)-trione (1:1)], for which the “antagonistic activity (% inhibition)” value is 53%.
